Test system: MRSA strain 2468
Assay: SEM of treated cells (morphological changes)
Format: cell-based, Staphylococcus aureus
Details: 1× MIC, 18 h incubation, 20,000× magnification
Method: The treatment effect of NNS4-3 AMP on tested bacterial cells was investigated by observing morphological changes under SEM. S. aureus TISTR 517 and MRSA strain 2468 were precultured in MH broth for 18 h before being centrifuged to harvest the cell pellet. Cell pellets of both strains were washed with 0.85% sterile NaCl solution 3 times to remove exopolysaccharide. The washed cells were then dispersed in CAMHB to adjust cell turbidity to 0.1 OD at 625 nm. The prepared cells were diluted to 5 × 10^5 CFU/mL with CAMHB before being treated with NNS4-3 AMP. […] The sample for SEM micrography was prepared by fixing the bacterial sample in 2.5% glutaraldehyde in 0.1 M phosphate buffer pH 7.2 for 24 h before ethanol dehydration of the sample. The complete ethanol removal from the prepared sample was conducted by a critical point drying machine (Quorum Technologies Ltd., Lewes, East Sussex, UK).

CC(C)CC(NC(=O)C(N)CCCCN)C(=O)NC(CC(C)C)C(=O)NC(CCCCN)C(=O)NC(CC(=O)O)C(=O)NC(CC(C)C)C(=O)NC(Cc1ccccc1)C(=O)NC(Cc1c[nH]cn1)C(=O)NC(CC(=O)O)C(=O)NC(CC(N)=O)C(=O)O (single isomer, unassigned) [NNS4-3 AMP]
morphological changes under SEM: membrane disruption and pore formation

— publication PMC11350868, “A Novel Bacitracin-like Peptide from Mangrove-Isolated Bacillus paralicheniformis NNS4-3 against MRSA and Its Genomic Insights” (Antibiotics, 2024)
